Data reported in PubChem BioAssay (NCI).
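Each compound was tested at five concentrations against cells in 96-well plates for 48 hours. GI50 = concentration required for 50% inhibition of growth. TGI: total growth inhibition.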

What was measured:
Assay in all cases: NCI anticancer screen, dose series, 48 h
HCT-15 colon = test system: HCT-15 colon
NCI-H522 lung = test system: NCI-H522 lung
SK-OV-3 ovarian = test system: SK-OV-3 ovarian
SK-MEL-28 melanoma = test system: SK-MEL-28 melanoma
ACHN renal = test system: ACHN renal
UACC-62 melanoma = test system: UACC-62 melanoma
NCI/ADR-RES ovarian = test system: NCI/ADR-RES ovarian
NCI-H460 lung = test system: NCI-H460 lung
DU-145 prostate = test system: DU-145 prostate
CCRF-CEM leukemia = test system: CCRF-CEM leukemia
HOP-62 NSCLC = test system: HOP-62 NSCLC
A549 NSCLC = test system: A549 NSCLC
MOLT-4 leukemia = test system: MOLT-4 leukemia
UO-31 renal = test system: UO-31 renal
COLO 205 colon = test system: COLO 205 colon
OVCAR-5 ovarian = test system: OVCAR-5 ovarian
MCF7 breast = test system: MCF7 breast
RPMI-8226 leukemia = test system: RPMI-8226 leukemia
SK-MEL-5 melanoma = test system: SK-MEL-5 melanoma
HCT-116 colon = test system: HCT-116 colon
786-0 renal = test system: 786-0 renal
KM12 colon = test system: KM12 colon
CAKI-1 renal = test system: CAKI-1 renal
U251 CNS = test system: U251 CNS
SF-268 CNS = test system: SF-268 CNS
MDA-MB-435 = test system: MDA-MB-435
BT-549 breast = test system: BT-549 breast
SW-620 colon = test system: SW-620 colon
LOX IMVI melanoma = test system: LOX IMVI melanoma
SR leukemia = test system: SR leukemia
UACC-257 melanoma = test system: UACC-257 melanoma
PC-3 prostate = test system: PC-3 prostate
SNB-19 CNS = test system: SNB-19 CNS
MDA-MB-231 breast = test system: MDA-MB-231 breast
HL-60(TB) leukemia = test system: HL-60(TB) leukemia
HCC-2998 colon = test system: HCC-2998 colon
T-47D breast = test system: T-47D breast
SNB-75 CNS = test system: SNB-75 CNS
EKVX NSCLC = test system: EKVX NSCLC
HT29 colon = test system: HT29 colon
SK-MEL-2 melanoma = test system: SK-MEL-2 melanoma
A498 renal = test system: A498 renal
HOP-92 NSCLC = test system: HOP-92 NSCLC
NCI-H23 lung = test system: NCI-H23 lung
SN12C renal = test system: SN12C renal
SF-295 CNS = test system: SF-295 CNS
IGROV1 ovarian = test system: IGROV1 ovarian
TK-10 renal = test system: TK-10 renal
OVCAR-8 ovarian = test system: OVCAR-8 ovarian
NCI-H226 lung = test system: NCI-H226 lung
K-562 leukemia = test system: K-562 leukemia
M14 melanoma = test system: M14 melanoma
SF-539 CNS = test system: SF-539 CNS
RXF 393 renal = test system: RXF 393 renal
OVCAR-4 ovarian = test system: OVCAR-4 ovarian
OVCAR-3 ovarian = test system: OVCAR-3 ovarian
HS 578T breast = test system: HS 578T breast
MALME-3M melanoma = test system: MALME-3M melanoma

How did the GI50 (HCT-15 colon) turn out when `Cc1cc(CCl)c(C)cc1CCl` was run?
Its GI50 is 2.72 µM.

What about the TGI (HCT-15 colon) of the same compound?
The TGI was 17.3 µM.

What about the GI50 (NCI-H522 lung) of the same compound?
The GI50 was 1.7 µM.

And the TGI (NCI-H522 lung)?
The TGI was 3.57 µM.

And the GI50 (SK-OV-3 ovarian)?
The GI50 was 4.92 µM.

And the TGI (SK-OV-3 ovarian)?
The TGI was 23 µM.

What about the GI50 (SK-MEL-28 melanoma) of the same compound?
Its GI50 is 2.49 µM.

What about the TGI (SK-MEL-28 melanoma) of the same compound?
The TGI was 6.66 µM.

And the GI50 (ACHN renal)?
Its GI50 is 0.695 µM.

What about the TGI (ACHN renal) of the same compound?
Its TGI is 3.08 µM.

What about the GI50 (UACC-62 melanoma) of the same compound?
Its GI50 is 1.93 µM.

What about the TGI (UACC-62 melanoma) of the same compound?
Its TGI is 7.59 µM.

What about the GI50 (NCI/ADR-RES ovarian) of the same compound?
The GI50 was 2.07 µM.

What about the TGI (NCI/ADR-RES ovarian) of the same compound?
Its TGI is 7.77 µM.

What about the GI50 (NCI-H460 lung) of the same compound?
The GI50 was 0.12 µM.

And the TGI (NCI-H460 lung)?
The TGI was 1.43 µM.

What about the GI50 (DU-145 prostate) of the same compound?
Its GI50 is 0.733 µM.

And the TGI (DU-145 prostate)?
The TGI was 2.92 µM.

And the GI50 (CCRF-CEM leukemia)?
Its GI50 is 0.351 µM.

And the TGI (CCRF-CEM leukemia)?
Its TGI is 5.61 µM.

And the GI50 (HOP-62 NSCLC)?
Its GI50 is 1.58 µM.

What about the TGI (HOP-62 NSCLC) of the same compound?
The TGI was 3.79 µM.

And the GI50 (A549 NSCLC)?
The GI50 was 1.66 µM.

And the TGI (A549 NSCLC)?
Its TGI is 5.09 µM.

What about the GI50 (MOLT-4 leukemia) of the same compound?
Its GI50 is 0.573 µM.

What about the TGI (MOLT-4 leukemia) of the same compound?
Its TGI is 8.39 µM.

What about the GI50 (UO-31 renal) of the same compound?
Its GI50 is 1.53 µM.

And the TGI (UO-31 renal)?
Its TGI is 3.71 µM.

What about the GI50 (COLO 205 colon) of the same compound?
The GI50 was 1.53 µM.

What about the TGI (COLO 205 colon) of the same compound?
The TGI was 3.11 µM.

And the GI50 (OVCAR-5 ovarian)?
Its GI50 is 2.94 µM.

And the TGI (OVCAR-5 ovarian)?
Its TGI is 8.62 µM.

And the GI50 (MCF7 breast)?
The GI50 was 0.281 µM.

What about the TGI (MCF7 breast) of the same compound?
The TGI was 2.32 µM.

What about the GI50 (RPMI-8226 leukemia) of the same compound?
Its GI50 is 1.63 µM.

What about the TGI (RPMI-8226 leukemia) of the same compound?
Its TGI is 6.9 µM.

What about the GI50 (SK-MEL-5 melanoma) of the same compound?
Its GI50 is 4.19 µM.

What about the TGI (SK-MEL-5 melanoma) of the same compound?
Its TGI is 17.2 µM.

And the GI50 (HCT-116 colon)?
Its GI50 is 1.48 µM.

What about the TGI (HCT-116 colon) of the same compound?
The TGI was 6.58 µM.

What about the GI50 (786-0 renal) of the same compound?
The GI50 was 2.19 µM.

What about the GI50 (KM12 colon) of the same compound?
Its GI50 is 0.845 µM.

What about the TGI (KM12 colon) of the same compound?
The TGI was 2.42 µM.

What about the GI50 (CAKI-1 renal) of the same compound?
Its GI50 is 0.358 µM.

And the TGI (CAKI-1 renal)?
Its TGI is 1.59 µM.

What about the GI50 (U251 CNS) of the same compound?
Its GI50 is 1.47 µM.

What about the TGI (U251 CNS) of the same compound?
Its TGI is 4.27 µM.

What about the GI50 (SF-268 CNS) of the same compound?
Its GI50 is 1.02 µM.

And the TGI (SF-268 CNS)?
Its TGI is 6.08 µM.

What about the GI50 (MDA-MB-435) of the same compound?
The GI50 was 1.84 µM.

And the TGI (MDA-MB-435)?
The TGI was 4.69 µM.

What about the GI50 (BT-549 breast) of the same compound?
The GI50 was 4.34 µM.

What about the TGI (BT-549 breast) of the same compound?
Its TGI is 18.9 µM.

And the GI50 (SW-620 colon)?
The GI50 was 1.34 µM.

What about the TGI (SW-620 colon) of the same compound?
Its TGI is 5.74 µM.

What about the GI50 (LOX IMVI melanoma) of the same compound?
The GI50 was 0.883 µM.

What about the TGI (LOX IMVI melanoma) of the same compound?
The TGI was 3.79 µM.

And the GI50 (SR leukemia)?
Its GI50 is 0.114 µM.

What about the TGI (SR leukemia) of the same compound?
Its TGI is 8.83 µM.

What about the GI50 (UACC-257 melanoma) of the same compound?
The GI50 was 2.15 µM.

What about the TGI (UACC-257 melanoma) of the same compound?
The TGI was 5.29 µM.

And the GI50 (PC-3 prostate)?
Its GI50 is 2.25 µM.

And the TGI (PC-3 prostate)?
Its TGI is 10.1 µM.

And the GI50 (SNB-19 CNS)?
Its GI50 is 3.75 µM.

And the TGI (SNB-19 CNS)?
The TGI was 17.6 µM.

What about the GI50 (MDA-MB-231 breast) of the same compound?
The GI50 was 4.08 µM.

What about the TGI (MDA-MB-231 breast) of the same compound?
Its TGI is 18.6 µM.

What about the GI50 (HL-60(TB) leukemia) of the same compound?
Its GI50 is 2.98 µM.

What about the TGI (HL-60(TB) leukemia) of the same compound?
The TGI was 13.2 µM.

What about the GI50 (HCC-2998 colon) of the same compound?
Its GI50 is 1.54 µM.

What about the TGI (HCC-2998 colon) of the same compound?
Its TGI is 3.51 µM.

What about the GI50 (T-47D breast) of the same compound?
Its GI50 is 0.733 µM.

What about the TGI (T-47D breast) of the same compound?
Its TGI is 2.31 µM.

And the GI50 (SNB-75 CNS)?
The GI50 was 1.38 µM.

What about the TGI (SNB-75 CNS) of the same compound?
Its TGI is 4.15 µM.

And the GI50 (EKVX NSCLC)?
Its GI50 is 2.08 µM.

And the TGI (EKVX NSCLC)?
Its TGI is 5.49 µM.

And the GI50 (HT29 colon)?
The GI50 was 1.44 µM.

And the TGI (HT29 colon)?
Its TGI is 3.68 µM.

What about the GI50 (SK-MEL-2 melanoma) of the same compound?
The GI50 was 3.27 µM.

What about the TGI (SK-MEL-2 melanoma) of the same compound?
Its TGI is 13.3 µM.

And the GI50 (A498 renal)?
Its GI50 is 1.79 µM.

What about the TGI (A498 renal) of the same compound?
Its TGI is 3.96 µM.

What about the GI50 (HOP-92 NSCLC) of the same compound?
Its GI50 is 2.52 µM.

And the TGI (HOP-92 NSCLC)?
Its TGI is 9.55 µM.

And the GI50 (NCI-H23 lung)?
The GI50 was 3.77 µM.

What about the TGI (NCI-H23 lung) of the same compound?
The TGI was 18.5 µM.

What about the GI50 (SN12C renal) of the same compound?
The GI50 was 0.605 µM.

And the TGI (SN12C renal)?
Its TGI is 13.6 µM.

What about the GI50 (SF-295 CNS) of the same compound?
The GI50 was 0.84 µM.

And the TGI (SF-295 CNS)?
The TGI was 4.61 µM.

What about the GI50 (IGROV1 ovarian) of the same compound?
Its GI50 is 1.47 µM.

What about the TGI (IGROV1 ovarian) of the same compound?
The TGI was 6.25 µM.

What about the GI50 (TK-10 renal) of the same compound?
The GI50 was 1.97 µM.

And the TGI (TK-10 renal)?
Its TGI is 5.05 µM.

And the GI50 (OVCAR-8 ovarian)?
The GI50 was 3.21 µM.

And the TGI (OVCAR-8 ovarian)?
Its TGI is 17.4 µM.

And the GI50 (NCI-H226 lung)?
Its GI50 is 2.89 µM.

What about the TGI (NCI-H226 lung) of the same compound?
Its TGI is 16 µM.

And the GI50 (K-562 leukemia)?
Its GI50 is 1.06 µM.

And the TGI (K-562 leukemia)?
Its TGI is > 33.2 µM.

What about the GI50 (M14 melanoma) of the same compound?
The GI50 was 3.54 µM.

What about the TGI (M14 melanoma) of the same compound?
The TGI was 30.5 µM.

What about the GI50 (SF-539 CNS) of the same compound?
Its GI50 is 1.02 µM.

What about the TGI (SF-539 CNS) of the same compound?
Its TGI is 4.26 µM.

And the GI50 (RXF 393 renal)?
Its GI50 is 2.93 µM.

What about the TGI (RXF 393 renal) of the same compound?
The TGI was 8.72 µM.

And the GI50 (OVCAR-4 ovarian)?
The GI50 was 3.4 µM.

What about the TGI (OVCAR-4 ovarian) of the same compound?
The TGI was 12.8 µM.

And the GI50 (OVCAR-3 ovarian)?
Its GI50 is 1.76 µM.

What about the TGI (OVCAR-3 ovarian) of the same compound?
The TGI was 4.04 µM.

And the GI50 (HS 578T breast)?
Its GI50 is 2.4 µM.

And the TGI (HS 578T breast)?
Its TGI is 8.21 µM.

And the GI50 (MALME-3M melanoma)?
The GI50 was 1.96 µM.

What about the TGI (MALME-3M melanoma) of the same compound?
The TGI was 5.46 µM.
